Among the test systems are ACHN renal; CCRF-CEM leukemia; DU-145 prostate; EKVX NSCLC; HCT-116 colon; K-562 leukemia; KM12 colon; M14 melanoma; SK-MEL-2 melanoma; SK-MEL-28 melanoma.
Holding throughout (test): NCI-60 cell line screen, 48 h

Molecules are shown by their SMILES.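 Exposure lasted 48 hours, with cells grown in 96-well plates and compounds tested at five concentrations. Abbreviation: GI50, concentration required for 50% inhibition of growth. TGI marks complete inhibition of growth.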

For the compound `CCCCCCCCOC(=O)c1cc(O)c(O)c(O)c1`, the GI50 in the test with ACHN renal was 1.6 µM; in the test with CCRF-CEM leukemia, 0.314 µM; in the test with DU-145 prostate, 2.84 µM; in the test on EKVX NSCLC, 4.65 µM; in the test with HCT-116 colon it was 1.97 µM; with K-562 leukemia, 2.05 µM. Moreover, the GI50 was 2.9 µM in the test on KM12 colon, 2.15 µM with M14 melanoma, 4.72 µM in the test on SK-MEL-2 melanoma and 7.19 µM in the test with SK-MEL-28 melanoma. In addition, the TGI was 13.8 µM in the test with ACHN renal; more than 42.8 µM in the test on CCRF-CEM leukemia; 14 µM in the test with DU-145 prostate; 22.4 µM in the test on EKVX NSCLC; 12.9 µM in the test with HCT-116 colon; more than 38.8 µM with K-562 leukemia. The TGI amounted to 17.4 µM in the test on KM12 colon, 9.19 µM in the test on M14 melanoma, 18.2 µM in the test with SK-MEL-2 melanoma and 29.6 µM with SK-MEL-28 melanoma.
